Read-outs that look alike come from different tables or passages of the source.
Experiments:
[1] = biological target: T1, recombinantly expressed His-tagged protein corresponding to amino acids 575-869 of human Tyk2 (Homo sapiens, UniProt P29597); assay: Probe displacement assay (scintillation proximity, tritiated probe); format: binding; details: His-tagged Tyk2 (575-869) 2.5 nM, 40 nM radiolabeled probe, 30 minutes at room temperature
T1 construct: made in house
Protocol: The preparation of radiolabeled probe, (R)—N-(1-(3-(8-methyl-5-(methylamino)-8H-imidazo[4,5-d]thiazolo[5,4-b]pyridin-2-yl)phenyl)ethyl)-2-([^3H]methylsulfonyl)benzamide, was performed as described below: […]

[2] = system: IL-23 stimulated Kit225 T cells with a stably-integrated STAT-dependent luciferase reporter; assay: Kit225 T cell assay, IL-23 stimulated STAT-dependent luciferase reporter; format: cell-based, human
Protocol: (§1) Kit225 T cells with a stably-integrated STAT-dependent luciferase reporter were plated in RPMI (GIBCO) containing 10% heat-inactivated FBS (GIBCO) and 100 U/mL PenStrep (GIBCO). The cells were then stimulated with either 20 ng/mL human recombinant IL-23 or 200 U/mL human recombinant IFNα (PBL InterferonSource) for 5-6 hours. Luciferase expression was measured using the STEADY-GLO Luciferase Assay System (PROMEGA) according to the manufacturer's instructions.

[3] = system: IFNα stimulated Kit225 T cells with a stably-integrated STAT-dependent luciferase reporter; assay: Kit225 T cell assay, IFNα stimulated STAT-dependent luciferase reporter; format: cell-based, human
Protocol: as §1

[4] = Homo sapiens, KIT225, 20 ng/mL human recombinant IL-23, 5-6 hours, luciferase, read-out: IL-23 Kit225 Reporter, (IC50)
[5] = Homo sapiens, KIT225, 200 U/mL human recombinant IFNα, 5-6 hours, luciferase, read-out: IFNa Kit225 Reporter, (IC50)
[6] = Homo sapiens, KIT225, read-out: IFNa Kit225 Reporter, (IC50, uM)
[7] = KIT225, 20 ng/mL human recombinant IL-23, 5-6 hours, luciferase, read-out: IL-23 Kit225 Reporter, (IC50)
[8] = KIT225, 200 U/mL human recombinant IFNα, 5-6 hours, luciferase, read-out: IFNa Kit225 Reporter, (IC50)

T1 sequence (P29597 with tags, fused parts or gaps): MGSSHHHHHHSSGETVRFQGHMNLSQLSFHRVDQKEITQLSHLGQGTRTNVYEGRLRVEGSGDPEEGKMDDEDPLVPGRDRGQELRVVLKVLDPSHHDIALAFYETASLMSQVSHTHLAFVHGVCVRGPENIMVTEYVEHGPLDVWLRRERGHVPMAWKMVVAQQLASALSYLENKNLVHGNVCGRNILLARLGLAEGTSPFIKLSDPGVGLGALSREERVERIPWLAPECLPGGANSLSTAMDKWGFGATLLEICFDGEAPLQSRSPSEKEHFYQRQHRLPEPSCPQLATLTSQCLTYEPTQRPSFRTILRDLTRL

CNc1cc(Nc2cc(C)cc(F)c2)nn2c(C(=O)NC3CC3)cnc12 [Example 2]
EC50 [1]: 3.24 nM | IC50 [2, 4]: 0.03 µM | IC50 [3, 5]: 0.03 µM

CNc1cc(Nc2cc(C)cc(F)c2)nn2c(C(=O)N3CCC3)cnc12 [Example 3]
EC50 [1]: 60 nM | IC50 ([2]; Homo sapiens, KIT225, read-out: IL-23 Kit225 Reporter, (IC50, uM)): 2.82 µM | IC50 [3, 6]: 1.92 µM

CNc1cc(Nc2cc(F)cc(C(F)(F)F)c2)nn2c(C(=O)NC3CCC3)cnc12 [Example 4]
EC50 [1]: 6.85 nM | IC50 [2, 4]: 0.81 µM | IC50 [3, 5]: 0.32 µM

CNc1cc(Nc2cccc(OC(F)(F)F)c2)nn2c(C(=O)NC3CCC3)cnc12 [Example 5]
EC50 [1]: 7.29 nM | IC50 [2, 4]: 0.5 µM | IC50 [3, 5]: 0.5 µM

CNc1cc(Nc2cc(F)ccc2F)nn2c(C(N)=O)cnc12 [Example 6]
EC50 [1]: 4.21 nM | IC50 [2, 7]: 0.12 µM | IC50 [3, 8]: 0.09 µM

CNc1cc(Nc2cc(C)cc(C)c2)nn2c(C(=O)N3CC(O)C3)cnc12 [Example 7]
EC50 [1]: 250 nM | IC50 [3, 5]: 3.3 µM

CNc1cc(Nc2cc(F)ccc2F)nn2c(C(=O)NC3CC3)cnc12 [Example 8]
EC50 [1]: 3.61 nM | IC50 [2, 4]: 0.03 µM | IC50 [3, 5]: 0.03 µM

CNc1cc(Nc2cc(C)cc(F)c2)nn2c(C(=O)NCC(C)(C)O)cnc12 [Example 9]
EC50 [1]: 5.91 nM | IC50 [2, 4]: 0.25 µM | IC50 [3, 5]: 0.17 µM

CNc1cc(N2CCc3ccccc32)nn2c(C(=O)NC3CCC3)cnc12 [Example 10]
EC50 [1]: 7.57 nM | IC50 [2, 7]: 0.16 µM | IC50 [3, 8]: 0.08 µM

CNc1cc(N2CCc3ccccc32)nn2c(C(=O)NCC(C)(C)O)cnc12 [Example 11]
EC50 [1]: 90 nM | IC50 [2, 7]: 2.9 µM | IC50 [3, 8]: 2.27 µM

CNc1cc(Nc2cc(F)cc(F)c2F)nn2c(C(=O)NC3CC3)cnc12 [Example 13]
EC50 [1]: 2.97 nM | IC50 [2, 4]: 0.05 µM | IC50 [3, 5]: 0.03 µM

CNc1cc(Nc2cc(F)cc(F)c2F)nn2c(C(=O)NCC(C)(C)O)cnc12 [Example 14]
EC50 [1]: 7.03 nM | IC50 [2, 7]: 0.37 µM | IC50 [3, 8]: 0.26 µM

CNc1cc(Nc2cc(F)cc(F)c2)nn2c(C(=O)NCC(C)(C)CO)cnc12 [Example 15]
EC50 [1]: 20 nM | IC50 [2, 7]: 0.56 µM | IC50 [3, 8]: 0.4 µM

CNc1cc(Nc2cc(F)cc(F)c2OC)nn2c(C(=O)NCC(C)(C)C)cnc12 [Example 16]
EC50 [1]: 7.04 nM | IC50 [2, 7]: 0.24 µM | IC50 [3, 8]: 0.09 µM

CNc1cc(Nc2cc(F)cc(F)c2F)nn2c(C(=O)NCC(C)(C)CO)cnc12 [Example 18]
EC50 [1]: 3.72 nM | IC50 [2, 7]: 0.04 µM | IC50 [3, 8]: 0.01 µM

CNc1cc(Nc2c(F)c(F)cc(F)c2F)nn2c(C(N)=O)cnc12 [Example 19]
EC50 [1]: 5.86 nM | IC50 [2, 7]: 0.27 µM | IC50 [3, 8]: 0.17 µM

CNc1cc(Nc2c(F)c(F)cc(F)c2F)nn2c(C(=O)NC3CC3)cnc12 [Example 20]
EC50 [1]: 3.97 nM | IC50 [2, 4]: 0.06 µM | IC50 [3, 5]: 0.05 µM

CNc1cc(Nc2c(F)c(F)cc(F)c2F)nn2c(C(=O)NCC(C)(C)O)cnc12 [Example 21]
EC50 [1]: 30 nM | IC50 [2, 7]: 0.39 µM | IC50 [3, 8]: 0.21 µM

CNc1cc(Nc2ccccn2)nn2c(C(=O)N[C@@H]3C[C@@H]3F)cnc12 [Example 22]
EC50 [1]: 5.46 nM | IC50 [2, 4]: 0.25 µM | IC50 [3, 5]: 0.18 µM

CNc1cc(Nc2cccc(-c3ccc(OC(F)(F)F)cc3)n2)nn2c(C(=O)NC3(C#N)CC3)cnc12 [Example 23]
EC50 [1]: 40 nM | IC50 [2, 7]: 0.42 µM | IC50 [3, 8]: 0.66 µM

CNc1cc(Nc2cccnc2OC)nn2c(C(=O)NC3(C#N)CC3)cnc12 [Example 24]
EC50 [1]: 7.25 nM | IC50 [2, 7]: 0.04 µM | IC50 [3, 8]: 0.05 µM

CNc1cc(Nc2cccnc2OC)nn2c(C(=O)NCCO)cnc12 [Example 25]
EC50 [1]: 6.05 nM | IC50 [2, 7]: 0.05 µM | IC50 [3, 8]: 0.09 µM

CNc1cc(Nc2cccnc2OC)nn2c(C(=O)NCCF)cnc12 [Example 26]
EC50 [1]: 2.93 nM | IC50 [2, 7]: 0.09 µM | IC50 [3, 8]: 0.06 µM

CNc1cc(Nc2cccnc2OC)nn2c(C(=O)NC3CCC3)cnc12 [Example 27]
EC50 [1]: 2.7 nM | IC50 [2, 4]: 0.04 µM | IC50 [3, 5]: 0.01 µM

CNc1cc(Nc2cccnc2-n2cccn2)nn2c(C(=O)NC3CCCC3O)cnc12 (stereo not shown) [Example 28]
EC50 [1]: 60 nM | IC50 [2, 7]: 0.33 µM | IC50 [3, 8]: 0.45 µM

CNc1cc(Nc2cccnc2-n2cccn2)nn2c(C(=O)NC(C)CO)cnc12 (stereo not shown) [Example 29]
EC50 [1]: 40 nM | IC50 [2, 7]: 0.27 µM | IC50 [3, 8]: 0.41 µM

CNc1cc(Nc2cccnc2-n2cccn2)nn2c(C(=O)NCCO)cnc12 [Example 30]
EC50 [1]: 20 nM | IC50 [2, 7]: 0.35 µM | IC50 [3, 8]: 0.21 µM

CNc1cc(Nc2cccnc2-n2cccn2)nn2c(C(=O)NCC(C)(C)O)cnc12 [Example 31]
EC50 [1]: 130 nM | IC50 [2, 7]: 0.58 µM | IC50 [3, 8]: 2.58 µM

CNc1cc(Nc2cccnc2-n2cccn2)nn2c(C(=O)N[C@@H](C)CO)cnc12 [Example 32]
EC50 [1]: 50 nM | IC50 [2, 7]: 0.54 µM | IC50 [3, 8]: 0.31 µM

N#Cc1cc(Nc2cc(NC3CC3)c3ncc(C(=O)NC4CC4)n3n2)cc(C(F)(F)F)c1 [Example 33]
EC50 [1]: 190 nM | IC50 [2, 7]: 12.5 µM | IC50 [3, 8]: 12.5 µM

N#Cc1cc(Nc2cc(NC3CC3)c3ncc(C(=O)NCCO)n3n2)cc(C(F)(F)F)c1 [Example 35]
EC50 [1]: 160 nM | IC50 [2, 7]: 8.07 µM | IC50 [3, 8]: 8.48 µM

CCNC(=O)c1cnc2c(NC3CC3)cc(Nc3cc(C#N)cc(C(F)(F)F)c3)nn12 [Example 36]
EC50 [1]: 350 nM | IC50 [2, 7]: 3.33 µM | IC50 [3, 8]: 12.5 µM

Cc1cc(F)cc(Nc2cc(NC3CC3)c3ncc(C(=O)NC4CC4)n3n2)c1 [Example 38]
EC50 [1]: 20 nM | IC50 [2, 4]: 0.79 µM | IC50 [3, 5]: 0.58 µM

O=C(NC1CCC1)c1cnc2c(NC3CC3)cc(Nc3cc(F)cc(F)c3F)nn12 [Example 44]
EC50 [1]: 60 nM | IC50 [2, 7]: 1.46 µM | IC50 [3, 8]: 1.39 µM

NC(=O)c1cnc2c(NC3CC3)cc(Nc3cccc(F)c3)nn12 [Example 47]
EC50 [1]: 40 nM | IC50 [2, 7]: 1.12 µM | IC50 [3, 8]: 1.13 µM

Cc1cc(C)cc(Nc2cc(NCCCN(C)C)c3ncc(C(N)=O)n3n2)c1 [Example 50]
EC50 [1]: 70 nM | IC50 [2, 7]: 2.32 µM | IC50 [3, 8]: 1.28 µM

Cc1cc(C)cc(Nc2cc(NCC3CC3)c3ncc(C(N)=O)n3n2)c1 [Example 51]
EC50 [1]: 70 nM | IC50 [2, 7]: 3.74 µM | IC50 [3, 8]: 2.9 µM

Cc1cc(C)cc(Nc2cc(NCCO)c3ncc(C(N)=O)n3n2)c1 [Example 52]
EC50 [1]: 70 nM | IC50 [2, 7]: 7.04 µM | IC50 [3, 8]: 12.8 µM

Cc1cc(C)cc(Nc2cc(NCC(C)C)c3ncc(C(N)=O)n3n2)c1 [Example 53]
EC50 [1]: 200 nM | IC50 [2, 7]: 9.72 µM | IC50 [3, 8]: 12.4 µM

CCCNc1cc(Nc2cc(C)cc(C)c2)nn2c(C(N)=O)cnc12 [Example 54]
EC50 [1]: 30 nM | IC50 [2, 7]: 1.25 µM | IC50 [3, 8]: 1.17 µM

CNc1cc(Nc2cccnc2-n2ccc(C(F)(F)F)n2)nn2c(C(=O)NC3CC3)cnc12 [Example 99]
EC50 [1]: 570 nM

CNc1cc(Nc2cccnc2C(=O)NCCOC)nn2c(C(=O)NC3CC3)cnc12 [Example 108]
EC50 [1]: 7.59 nM

CNc1cc(Nc2cccc(-c3ccc(C(F)(F)F)cc3F)c2)nn2c(C(=O)NC[C@@](C)(O)CO)cnc12 [Example 113]
EC50 [1]: 7.62 nM | IC50 [2, 7]: 0.75 µM

CNc1cc(Nc2cc(C)cc(C)c2)nn2c(C(=O)NC3CC3)cnc12 [Example 114]
IC50 [3, 6]: 0.1 µM

Source: patent US10479793B2, “Imidazopyridazine compounds useful as modulators of IL-12, IL-23 and/or IFN alpha responses” (BRISTOL-MYERS SQUIBB COMPANY, priority 2015, dated 2019)
